According to PubChem BioAssay AID1159557 (GlaxoSmithKline (GSK), 2015):
Active and inactive are the calls of the source. The rule behind the calls is not given here.

Each compound was assayed on Trypanosoma brucei growth inhibition (assay: trypanosome proliferation inhibitors (AID 1159557);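 note: parasites exposed to compound for 48 h before the resazurin readout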).

SMILES | IC50
Cn1nccc1NC(=O)Cn1ccc(-c2ccncc2)n1 | 0.63 µM
Nc1nc(-c2ccccn2)nc(-n2nc(-c3ccccc3)cc2N)n1 | 1 µM
COc1ccc(NS(=O)(=O)c2cc(NC(=O)c3ccc([N+](=O)[O-])s3)ccc2OC)cc1 | 0.05 µM
COc1cnc2ccc(=O)n(CCN3CCC(NC(=O)c4ccc(Cl)cc4)CC3)c2c1 | 0.079 µM
COc1cccc(-c2cc(C(F)(F)F)nc(-n3ccc([N+](=O)[O-])n3)n2)c1 | 32 µM
O=C(NCCNc1noc(-c2ccc([N+](=O)[O-])cc2)n1)c1ccc(Cl)cc1 | 3.2 µM
N#Cc1cccc(Nc2nccc(N3CCC(NS(=O)(=O)c4cccc(C#N)c4)CC3)n2)c1 | 6.3 µM
Cc1ccc(NC(=O)c2ccc([N+](=O)[O-])s2)cc1S(=O)(=O)N1CCOCC1 | 0.25 µM
CN(Cc1ccc(C(N)=O)cc1)C(c1ccc(F)cc1)c1cccnc1 (stereo not drawn) | > 40 µM (inactive)
O=C(NC1CCN(C2Cc3ccc(NS(=O)(=O)c4cc(F)cc(F)c4)cc3C2)CC1)C1CC1 (stereo not drawn) | 1 µM
Cc1ccc2c(c1)SC(C(=O)Nc1n[nH]c(-c3ccccn3)n1)C2 (stereo not drawn) | 4 µM
CC(C)S(=O)(=O)c1ccc(-c2cnc(N)c3cc(-c4ccnc(N)n4)ccc23)cc1 | 0.2 µM
c1ccc2[nH]c(-c3ccc(N4CCCC4)nc3)nc2c1 | 0.79 µM
O=C(N1CCc2ccccc2CC1)C1(C(=O)N2CCC(n3c(=O)[nH]c4ncccc43)CC2)CC1 | > 40 µM (inactive)
CN(C)S(=O)(=O)c1ccc(-c2cnc(N)c(-c3nc4ccc(F)cc4[nH]3)c2)cc1 | 0.4 µM
O=C(Nc1ccc(-c2nc3ccccc3c(=O)[nH]2)cc1)c1cccs1 | 0.25 µM
CC1=C(C(=O)Nc2ccc(Cl)cc2)C(c2ccncc2)n2ncc(C(=O)Nc3ccccc3)c2N1 (stereo not drawn) | 3.2 µM
O=C(Nc1nccs1)c1ccccc1Cn1cc([N+](=O)[O-])cn1 | 0.32 µM
CCOc1ccc(CC(=O)N2c3ccccc3CC2C(=O)NC)cc1 (stereo not drawn) | 0.5 µM
O=C(c1ccc(Cl)cc1)c1ccc(OC(=O)N2CCOCC2)cc1 | 7.9 µM
O=C(CSc1nnc(-c2ccc3c(c2)OCO3)o1)N(Cc1ccco1)CC(F)(F)F | > 40 µM (inactive)
CC(C)c1sc(Cl)nc1C(=O)NCCc1nc(C(=O)Nc2ccc3c(c2)OCO3)cs1 | 25 µM

SMILES | IC50
CNC(=O)C1Cc2ccccc2N1C(=O)Cc1ccccc1 (stereo not drawn) | 0.63 µM
COc1ccc(C(=O)NC2CCN(CCn3c(=O)ccc4ncc(F)cc43)CC2)cc1Cl | 0.13 µM
Cc1cc(NC(=O)CC2CCCCC2)n(-c2nc3c(c(=O)[nH]2)CCC3)n1 | 0.2 µM
O=C(CC1(O)C(=O)N(Cc2ccccc2)c2ccc(Br)cc21)c1cccnc1 (stereo not drawn) | 0.63 µM
COc1ccc(-c2cc(C)no2)cc1S(=O)(=O)Nc1ccc(C)c(C)c1 | 20 µM
COc1cc(OC)cc(C(NS(=O)(=O)c2ccc(Cl)c(C(F)(F)F)c2)c2nccn2C)c1 (stereo not drawn) | 7.9 µM
Cc1cc(Nc2ccc(C#N)c(Cl)c2C)n[nH]1 | 0.0079 µM
NC(=O)c1ccccc1Nc1nc(NC2CCCCC2)nc2[nH]ccc12 | 0.5 µM
Cc1cc(-c2cccc3ccccc23)nc2nc(N)nc(N)c12 | 32 µM
O=C(CC1(O)C(=O)N(Cc2cccs2)c2ccc(Br)cc21)c1cccnc1 (stereo not drawn) | 0.63 µM
COc1ccc(NS(=O)(=O)c2cc(-c3cc(C)[nH]n3)ccc2C)cc1OC | 0.32 µM
CCN(CC)c1nc(N(C)C)nc2c1CN(Cc1ccccc1)CC2 | 20 µM
CCCC(=O)N(Cc1ccccn1)c1nc2ccccc2s1 | 20 µM
CN(Cc1nc2ccc(C(=O)NCC3CCCCC3)cc2[nH]1)C1CCCc2cccnc21 (stereo not drawn) | 0.79 µM
NCc1csc(Nc2cc(Oc3ccccc3)ncn2)n1 | 0.63 µM
NS(=O)(=O)c1ccc(Nc2nccc(-c3cnn4ncccc34)n2)cc1 | 0.079 µM
O=C(NCCc1nc(-c2ccc(F)c(F)c2)n[nH]1)C1CCCCC1 | 0.5 µM
Cc1ccccc1CNc1cc(C2CC2)nc(-c2nccn2C)n1 | 2.5 µM
CC(C)(C)C(=O)Nc1cc(C2CC2)nn1-c1nc2c(c(=O)[nH]1)CCCC2 | 0.16 µM
COc1ccc(NS(=O)(=O)c2cc(NC(=O)Cc3ccc(C)cc3)ccc2N2CCOCC2)cc1 | 5 µM
Cc1[nH]nc(-c2nc3ccccc3[nH]2)c1C(=O)NC1CCCNC1 (stereo not drawn) | 0.4 µM
CC(CCc1ccccc1)NC(=O)CN(Cc1ccccn1)Cc1ccccn1 (stereo not drawn) | 10 µM

SMILES | IC50
O=C(Nc1n[nH]c(-c2ccccn2)n1)C1CC1c1ccccc1 (stereo not drawn) | > 13 µM (inactive)
CC1(C)CCC(=Cc2ccc(Cl)cc2)CC1(O)Cn1ccnc1 (stereo not drawn) | 10 µM
COc1ccc(C2CC(c3ccccc3Cl)=NN2C(=O)CNC(=O)C2CCC2)cc1 (stereo not drawn) | 0.32 µM
O=C(Nc1nc2ccccc2[nH]1)c1c(O)c2cccc3c2n(c1=O)CC3 | 16 µM
CCN(CC)S(=O)(=O)c1ccc(C(=O)Nc2cc(C)nn2-c2nc(C)c(C)c(=O)[nH]2)cc1 | 0.32 µM
COc1ccc(CN2CCCCC2c2nc(-c3cccnc3)no2)cc1 (stereo not drawn) | > 40 µM (inactive)
O=C(Nc1cccc(F)c1)N1CCC(Oc2cccc(-c3cccnc3)c2)CC1 | 25 µM
Cc1occc1C(=O)Nc1ccccc1C(=O)Nc1nccs1 | 0.4 µM
Cc1c(C(C)NC(=O)Nc2cccc(Cl)c2)sc2ncnn12 (stereo not drawn) | 20 µM
O=c1[nH]c(C=Cc2cccc(OCCOc3ccccc3)c2)nc(O)c1[N+](=O)[O-] | 10 µM
COc1ccc(-c2ccc3nnc(-c4ccc(O)c(OC)c4)n3c2)cn1 | 2 µM
Cc1[nH]n2c(=O)c3c(nc2c1-c1ccc(Cl)cc1)CCCC3 | 0.16 µM
Oc1cccnc1-c1n[nH]c(Cc2ccccc2)n1 | 5 µM
Cc1cccnc1CN1CCN(CCCOc2ccc(-c3ccc(C(N)=O)cc3)cc2)CC1 | 10 µM
COc1ccc(-c2cnc(C)o2)cc1S(=O)(=O)Nc1ccc(C)cc1C | 6.3 µM
COc1ccc(Nc2nc(-c3ccccn3)cc(N3CCCC(O)C3)n2)cc1 (stereo not drawn) | 4 µM
CCNc1cc(-c2ccccn2)nc(Nc2ccccc2)n1 | 25 µM
O=C(CN(Cc1ccccn1)Cc1ccccn1)NC1Cc2ccccc2C1 | 20 µM
O=C(NCc1ccncc1)c1ccccc1N1CCCN(C(=O)Cc2ccc(F)c(F)c2)CC1 | 6.3 µM
O=C(CN(Cc1ccccn1)Cc1ccccn1)NCc1ccc(-c2csnn2)cc1 | 13 µM
Cn1cncc1CN1CCC2(CC1)COC(Cc1ccccc1)C2 (stereo not drawn) | > 40 µM (inactive)
CC(C)C[C@H](NC(=O)c1ccc(-c2ccccc2)o1)C(=O)NC1(C#N)CC1 | 0.1 µM

SMILES | IC50
COc1cc(NC(=O)Nc2cccc(CNC(=O)OC3CCCCC3)c2)ccc1-c1cnco1 | 0.25 µM
CCCCn1c(=O)c2c(N)onc2n(CCCC)c1=O | 0.63 µM
CCCCCNC(=O)c1c[nH]c2ccc(S(=O)(=O)N(C)c3ccc(OCC)cc3)cc2c1=O | 0.32 µM
N#Cc1cccc(CNc2ccc(-c3cnn(CC4CC4)c(=O)c3C#N)cc2)c1 | 10 µM
CC(=O)NC1(c2ccccc2)CCN(CC(=O)Nc2ccccc2-c2ccccc2)CC1 | 0.63 µM
CC(=O)NCCNc1cc(-c2ccnc(Nc3cccc(Cl)c3)n2)ccn1 | 0.2 µM
CC1CN(S(=O)(=O)c2ccc(NC(=O)c3cc(C4CC4)nc4c3cnn4C(C)C)cc2)CC(C)O1 (stereo not drawn) | 6.3 µM
CC(C)c1cc(Nc2cc(Cc3ccccc3)nc(NC3CCC(O)CC3)n2)n[nH]1 (stereo not drawn) | 0.079 µM
COCc1cnc2c(c1SCc1c(F)cccc1Cl)c(=O)n(C)c(=O)n2C | 4 µM
Cc1sc(C)c(C(F)(F)F)c1CNCCCNc1cc(=O)c2ccccc2[nH]1 | 0.01 µM
O=C(Nc1nc(-c2ccc(S(=O)(=O)N3CCOCC3)cc2)cs1)c1ccc([N+](=O)[O-])cc1 | 4 µM
Cc1cc(C)cc(NS(=O)(=O)c2cc(-c3cc(C)[nH]n3)ccc2C)c1 | 1 µM
Cc1nc2c(-c3n[nH]c(-c4ccccc4N)n3)cccn2c1C | 1 µM
c1cc(-c2ncc(-c3ccn[nH]3)s2)ccn1 | 20 µM
COc1ccc2ncc(Cl)c(CCN3CC[C@H](NCc4cc5c(cn4)OCS5)[C@@H](O)C3)c2n1 | 0.32 µM
CC(C)(C)C(O)(CCc1ccc(Cl)cc1)Cn1cncn1 (stereo not drawn) | > 40 µM (inactive)
CCC(CC)C(=O)Nc1ccc(-c2nnc(-c3ccc(OC)cc3)o2)cc1 | 0.5 µM
Cn1nc([N+](=O)[O-])nc1Oc1ccc(C(=O)c2ccccc2)cc1 | 20 µM
O=C(Cn1cnc2c(-c3ccccc3)csc2c1=O)N1CCCCC1 | 0.79 µM
COc1ccccc1C=CCN1C[C@H]2CCC[C@@H](C1)C2(O)c1cccnc1 (stereo partly drawn) | > 40 µM (inactive)
O=C(NCC1CCCCN1C(=O)c1cccc2ccccc12)c1ccccc1 (stereo not drawn) | 0.4 µM
Cc1nc(-c2ccncc2)ncc1C(C)NC(=O)c1ccc(Cl)s1 (stereo not drawn) | 1 µM

SMILES | IC50
CC(=O)Nc1ccc(-c2csc(NC(=O)c3ccc([N+](=O)[O-])s3)n2)cc1 | 0.025 µM
CS(=O)(=O)c1ccc(CC(=O)Nc2nc(-c3ccc(Cl)s3)cs2)cc1 | 10 µM
c1ccc2c(CCOc3nccnc3-c3ccncc3)c[nH]c2c1 | 32 µM
O=C(Cc1ccccc1)Nc1[nH]nc2sc(C(=O)NC3CCCC3)cc12 | 0.4 µM
COc1ccc(C(=O)Nc2c(C)nn(COc3cccc(C(F)(F)F)c3)c2C)cc1 | 0.79 µM
Cc1c(C#N)c([N+](=O)[O-])nn1Cc1cccc(Cl)c1Cl | 16 µM
Cc1ccc2onc(Nc3ccnc(Nc4cccc(S(C)(=O)=O)c4)n3)c2c1 | 6.3 µM
O=C(Nc1ccc(S(=O)(=O)N2CCCC2)cc1)c1ccc([N+](=O)[O-])s1 | 0.16 µM
COc1cc(Cl)c(C)cc1NC(=O)c1ccc([N+](=O)[O-])s1 | 0.5 µM
C=CCOCC1Cn2nc([N+](=O)[O-])nc2O1 (stereo not drawn) | > 40 µM (inactive)
NC(=O)c1cc(NC(=O)c2ccccc2COc2ccccc2)ccc1Cl | 16 µM
O=C(Nc1ccc(C(F)(F)F)cc1)Nc1cccc([N+](=O)[O-])c1 | 2 µM
COc1cccc(C(=O)[C@H]2C[C@@H]2CN(Cc2ccccn2)Cc2ccccn2)c1 | 16 µM
CC(Cn1ccnc1)NC(=O)C1CC1c1cccc(Cl)c1Cl (stereo not drawn) | > 40 µM (inactive)
CC(c1cc(Cl)cc(Cl)c1)N(C)c1ncc2c(N)nc(N)nc2n1 (stereo not drawn) | > 40 µM (inactive)
O=C(NCc1ccc(Cl)cc1)C1CN(C(=O)c2ccc(F)cc2)CCS1 (stereo not drawn) | 0.79 µM
Cc1cc(C)c(C#N)c(SCC(=O)c2ccc3c(c2)OCO3)n1 | 20 µM
CCC(=O)Nc1ccccc1C(=O)Nc1ccccn1 | 0.32 µM
Cn1nc(-c2ccc(NC(=O)Cc3ccccc3Cl)cc2)c2c(N)ncnc21 | 0.4 µM
Cc1cc2nc(N3CC[C@H]3C(N)=O)nc(Nc3cc(C4CC4)[nH]n3)c2s1 | 0.079 µM
